Experimental data taken from patent US20050234066A1, “Alpha substituted carboxylic acids” (Agouron Pharmaceuticals, Inc., priority 2004, published 2005).
pKi: −log10 of the molar value. Values joined by “and” are separate entries in the source; they are usually repeats but may differ in a detail not shown here. Equal entries are not always repeated. Where two headings read alike, the source gives them in different places.

How the values were obtained:
[1] = biological target: T1, PPAR-γ (Homo sapiens, UniProt P37231); assay: Scintillation Proximity Assay (SPA), displacement of 3H labeled darglitazone; format: binding; conditions: 3H darglitazone displacement
T1 sequence (P37231 1-505): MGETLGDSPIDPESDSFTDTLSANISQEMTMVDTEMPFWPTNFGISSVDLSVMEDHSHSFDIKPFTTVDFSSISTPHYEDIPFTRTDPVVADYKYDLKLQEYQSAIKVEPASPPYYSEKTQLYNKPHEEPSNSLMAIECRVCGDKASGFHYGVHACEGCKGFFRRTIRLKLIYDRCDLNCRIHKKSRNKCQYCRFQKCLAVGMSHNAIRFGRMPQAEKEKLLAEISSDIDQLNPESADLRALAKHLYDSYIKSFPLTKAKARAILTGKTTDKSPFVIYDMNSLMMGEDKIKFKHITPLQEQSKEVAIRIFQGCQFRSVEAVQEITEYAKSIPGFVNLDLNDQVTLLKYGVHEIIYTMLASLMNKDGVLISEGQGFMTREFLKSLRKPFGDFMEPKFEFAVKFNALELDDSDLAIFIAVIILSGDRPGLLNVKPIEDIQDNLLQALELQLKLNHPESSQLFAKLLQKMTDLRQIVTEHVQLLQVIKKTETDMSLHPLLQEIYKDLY
Description: (§1) Scintillatian Proximity Assay (SPA) Assays
(§2) In the SPA assay, 3H labeled darglitazone (for PPAR-γ) or GW2331 (for PPAR-α) is bound to the PPAR protein captured on SPA polylysine beads and generates radioactive count signal that can be detected by TopCounts (Packard). The PPAR-bound 3H labeled ligand can be displaced by an unlabeled compound. The Ki of the compound can be then determined by the extent of displacement at various compound concentrations. Reagents: • SPA polylysine beads, which can be purchased from Amersham Bioscience. • H labeled Darglitazone for PPAR-γ. • H labeled GW2331 for PPAR-α. • PPAR proteins. • Buffer—PBS, 10% glycerol, 14 mM beta-mercaptoethanol.

[2] = biological target: T2, PPAR-α (Homo sapiens, UniProt Q07869); assay: Scintillation Proximity Assay (SPA), displacement of 3H labeled GW2331; format: binding; conditions: 3H GW2331 displacement
T2 sequence (Q07869 1-468): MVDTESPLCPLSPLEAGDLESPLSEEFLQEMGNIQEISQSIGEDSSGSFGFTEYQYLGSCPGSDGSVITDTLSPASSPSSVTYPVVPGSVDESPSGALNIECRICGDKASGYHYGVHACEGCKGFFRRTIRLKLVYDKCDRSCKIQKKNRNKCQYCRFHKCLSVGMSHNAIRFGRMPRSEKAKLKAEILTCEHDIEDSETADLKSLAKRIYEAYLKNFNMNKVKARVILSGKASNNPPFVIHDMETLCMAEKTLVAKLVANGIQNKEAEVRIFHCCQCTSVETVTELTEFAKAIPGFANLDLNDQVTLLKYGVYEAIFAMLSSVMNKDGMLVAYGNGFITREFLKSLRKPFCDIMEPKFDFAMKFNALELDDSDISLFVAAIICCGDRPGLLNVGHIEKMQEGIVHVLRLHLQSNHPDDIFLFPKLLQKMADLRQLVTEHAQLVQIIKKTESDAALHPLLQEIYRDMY
Description: as §1, §2

| SMILES | pKi ([1]; read-out: PPAR-gamma Ki) | pKi ([2]; read-out: PPAR-alpha Ki) | pKi ([1]; PPAR-gamma Ki) | pKi ([2]; PPAR-alpha Ki) |
| --- | --- | --- | --- | --- |
| COC(Cc1ccc(OCCc2nc(-c3ccc(C)cc3)oc2C)nc1)C(=O)O [Example D-10] | 7.72 | 7.48 | – | – |
| Cc1oc(-c2ccccc2)nc1CCCc1ccc(OC2(C(=O)O)CCC2)cc1 [Example C-15] | 4.85 | 5.49 | – | – |
| COC(Cc1ccc(OCCc2ccc(Oc3ccccc3)cc2)nc1)C(=O)O [Example D-13] | 6.44 | 6.72 | – | – |
| CCOC(Cc1ccc(OCCc2ccc(Oc3ccccc3)cc2)nc1)C(=O)O [Example D-14] | 5.82 | 5.59 | – | – |
| Cc1oc(-c2ccccc2)nc1CCCOc1ccc2cc(CC3(C(=O)O)CCCO3)ccc2c1 (stereo not drawn) [Example C-92] | 5.96 | 5.55 | – | – |
| Cc1oc(-c2ccc(Cl)cc2)nc1CCOc1ccc(CC2(C(=O)O)CCCO2)nc1 (stereo not drawn) [Example C-52] | 6.52 | 6.82 | – | – |
| COc1ccc(-c2nc(CCOc3ccc(CC4(C(=O)O)CCCO4)nc3)c(C)o2)cc1 (stereo not drawn) [Example C-53] | 7.03 | 6.19 | – | – |
| COC(C)(Cc1ccc(OCCc2ccc(Oc3ccccc3)cc2)nc1)C(=O)O [Example D-40] | 5.02 | 5.74 | – | – |
| COC(C)(Cc1ccc(OCCc2nc(-c3cccc(C)c3)oc2C)nc1)C(=O)O [Example D-36] | 6.64 | 6.14 | – | – |
| Cc1ccc(-c2nc(CCOc3ccc(CC4(C(=O)O)CCC4)cc3)c(C)o2)cc1 [Example C-26] | 7.17 | 7.80 | – | – |
| Cc1oc(-c2cccc(C(F)(F)F)c2)nc1CCOc1ccc(CC2(C(=O)O)CCCO2)cc1 (stereo not drawn) [Example C-87] | 7.92 | 7.60 | – | – |
| Cc1oc(-c2ccccc2)nc1COC(=O)NCc1ccc(OC(C)(C)C(=O)O)cc1 [Example B-08] | 6.32 | 5.51 | – | – |
| COC(C)(Cc1ccc(OCCCc2nc(-c3ccccc3)oc2C)cn1)C(=O)O [Example D-28] | 5.80 | 5.32 | – | – |
| CCOC(Cc1ccc(OCCc2ccc(OS(=O)(=O)c3ccccc3)cc2)nc1)C(=O)O [Example D-17] | 7.51 | 6.04 | – | – |
| Cc1oc(-c2ccccc2)nc1C/C=C/c1ccc(OC2(C(=O)O)CCC2)cc1 [Example C-14] | 5.10 | 5.49 | – | – |
| COC(C)(Cc1ccc(OCCc2nc(C3CCCCC3)oc2C)nc1)C(=O)O [Example D-32] | 5.82 | 7.23 | – | – |
| Cc1oc(-c2cc(F)cc(F)c2)nc1CCOc1cccc(-c2cccc(OC(C)(C)C(=O)O)c2)c1 [Example A-22] | 6.77 | 6.07 | – | – |
| COc1ccc(-c2nc(CCOc3ccc(CC4(C(=O)O)CCCO4)cc3)c(C)o2)cc1 (stereo not drawn) [Example C-84] | 7.68 | 7.19 | – | – |
| Cc1oc(-c2ccc(C(N)=O)cc2)nc1CCOc1ccc(CC2(C(=O)O)CCCO2)cc1 (stereo not drawn) [Example C-81] | 7.82 | 6.12 | – | – |
| COc1ccc(-c2ccc(CCOc3ccc(CC4(C(=O)O)CCC4)cc3)cc2)cc1 [Example C-06, 1-{4-[2-(4′-methoxy-1,1′-biphenyl-4-yl)ethoxy]benzyl}cyclobutanecarboxylic acid] | 5.02 | 4.39 | – | – |
| Cc1oc(-c2ccccc2)nc1CCCOc1cccc(-c2cccc(OC3(C(=O)O)CCC3)c2)c1 [Example A-12] | 7.29 | 6.46 | – | – |
| CCOc1ccc(CCOc2ccc(CC(OCC)C(=O)O)cn2)cc1 [Example D-21] | 5.68 | 5.00 | – | – |
| COC(C)(Cc1ccc(OCCc2nc(-c3ccccc3)oc2C)cn1)C(=O)O [Example D-29] | 6.40 | 6.10 | – | – |
| O=C(O)C1(Cc2ccc(OCCc3ccc(-c4cccc(OC(F)(F)F)c4)cc3)cc2)CCC1 [Example C-09] | 5.85 | 5.34 | – | – |

| SMILES | pKi ([1]; read-out: PPAR-gamma Ki) | pKi ([2]; read-out: PPAR-alpha Ki) | pKi ([1]; PPAR-gamma Ki) | pKi ([2]; PPAR-alpha Ki) |
| --- | --- | --- | --- | --- |
| Cc1ccc(-c2nc(CCOc3ccc(CC4(C(=O)O)CCCO4)cc3)c(C)o2)cc1 (stereo not drawn) [Example C-83] | 8.10 | 8.40 | – | – |
| Cc1nn(-c2ccccc2)nc1CCOc1cccc(-c2cccc(OC(C)(C)C(=O)O)c2)c1 [Example A-26] | 6.82 | 6.48 | – | – |
| Cc1oc(-c2cccc(N(C)C)c2)nc1CCOc1ccc(CC2(C(=O)O)CCC2)cc1 [Example C-21] | 7.28 | 7.18 | – | – |
| CCOc1ccc(-c2nc(CCOc3ccc(CC(C)(OC)C(=O)O)cn3)c(C)o2)cc1 [Example D-37] | 6.28 | 5.33 | – | – |
| CN(CCOc1ccc(CC2(C(=O)O)CCCO2)cn1)c1nc2ccccc2o1 (stereo not drawn) [Example C-69] | 5.96 | 5.60 | – | – |
| Cc1oc(-c2ccccc2)nc1CCOc1cccc(CC2(C(=O)O)CCC2)c1 [Example C-18] | 5.46 | 7.19 | – | – |
| Cc1oc(-c2ccccc2)nc1CCOc1cnc(CC2(C(=O)O)CCCO2)cn1 (stereo not drawn) [Example C-77] | – | 5.54 | 6.82 | – |
| COC(C)(Cc1ccc(OCCc2nc(-c3ccc(C(F)(F)F)cc3)oc2C)nc1)C(=O)O [Example D-31] | 6.00 | 7.06 | – | – |
| Cc1oc(-c2ccccc2)nc1CCOc1ccc(CC2(C(=O)O)CCCC2)cn1 [Example C-46] | 5.70 | 5.46 | – | – |
| Cc1oc(-c2ccccc2)nc1CCCOC(=O)NCc1cccc(OC2(C(=O)O)CCC2)c1 [Example B-16] | 5.74 | 7.08 | – | – |
| CC(C)(Oc1cccc(CNC(=O)OCCc2cccc(C(F)(F)F)c2)c1)C(=O)O [Example B-03] | 4.51 | 5.05 | – | – |
| Cc1oc(-c2ccc(C(F)(F)F)c(F)c2)nc1CCOc1ccc(CC2(C(=O)O)CCC2)cc1 [Example C-24] | 7.08 | 7.66 | – | – |
| Cc1oc(-c2ccc(C#N)cc2)nc1CCOc1ccc(CC2(C(=O)O)CCCO2)cn1 (stereo not drawn) [Example C-61] | 6.51 | 6.62 | – | – |
| Cc1oc(-c2ccc(C#N)cc2)nc1CCOc1ccc(CC2(C(=O)O)CCCO2)cc1 (stereo not drawn) [Example C-80] | 7.21 | 7.28 | – | – |
| COc1cccc(-c2nc(CCOc3ccc(CC4(C(=O)O)CCCO4)nc3)c(C)o2)c1 (stereo not drawn) [Example C-54] | – | – | 7.70 | 5.92 |
| Cc1nn(-c2ccccc2)nc1COc1cccc(-c2cccc(OC3(C(=O)O)CCC3)c2)c1 [Example A-18] | 5.77 | 4.85 | – | – |
| Cc1oc(-c2cccc(F)c2)nc1COc1cccc(-c2cccc(OC3(C(=O)O)CCC3)c2)c1 [Example A-11] | 6.24 | 6.92 | – | – |
| Cc1cccc(-c2nc(CCOc3ccc(CC4(C(=O)O)CCCO4)nc3)c(C)o2)c1 (stereo not drawn) [Example C-50] | 7.37 | 5.96 | – | – |
| CCS(=O)(=O)Oc1ccc(CCOc2ccc(CC(OC)C(=O)O)cn2)cc1 [Example D-11] | 5.21 | 5.29 | – | – |
| CCOC(c1ccc(OCCc2nc(-c3ccccc3)oc2C)nc1)C1(C(=O)O)CCC1 (stereo not drawn) [Example C-45] | 6.66 | 5.11 | – | – |
| Cc1oc(-c2cccc(N(C)C)c2)nc1CCOc1ccc(CC2(C(=O)O)CCCO2)cc1 (stereo not drawn) [Example C-79] | 8.15 | 7.82 | – | – |
| Cc1oc(-c2ccccc2)nc1COc1ccc(OC2(C(=O)O)CCC2)cc1 [Example C-42] | 4.48 | 4.89 | – | – |
| Cc1oc(-c2ccccc2)nc1CCOC(=O)NCc1cccc(OC(C)(C)C(=O)O)c1 [Example B-05] | 5.88 and 5.54 and 5.70 | 5.69 and 5.49 and 5.44 | – | – |
| Cc1oc(-c2ccc(C(N)=O)cc2)nc1CCOc1ccc(CC2(C(=O)O)CCC2)cc1 [Example C-23] | 6.72 | 5.60 | – | – |
